Reference: patent publication US4331659A, “Antibiotic U-62,162 and process of making” (The Upjohn Company, priority 1980, dated 1982)
Values after ≈ are worked out from the molar mass of the structure shown.

Key:
[1] = tested on: Pseudomonas aeruginosa; assay: standard agar dilution assay (MIC); type: cell-based; conditions: UC 95; 24 hours, 28° to 37° C.
Method: (§1) The antibacterial assay is a standard agar dilution assay. The MIC is determined by standard methods using two-fold dilutions of the antibiotic in Brain Heart Infusion Broth (Difco Lab., Detroit, Michigan). The inocula are overnight cultures of the test organisms, diluted so that the final population contains approximately 10^5 cells/ml. The solutions are incubated at 28° to 37° C. for 24 hours. The lowest antibiotic concentration which allows no growth=MIC or minimum inhibitory concentration.

[2] = tested on: Staphylococcus aureus; assay: standard agar dilution assay (MIC); type: cell-based; conditions: 24 hours, 28° to 37° C.
Method: as §1

[3] = tested on: Streptococcus pyogenes; assay: standard agar dilution assay (MIC); type: cell-based; conditions: UC 152; 24 hours, 28° to 37° C.
Method: as §1

[4] = tested on: Enterococcus sp.; assay: standard agar dilution assay (MIC); type: cell-based; conditions: UC 701; 24 hours, 28° to 37° C.
Method: as §1

[5] = tested on: Streptococcus pneumoniae; assay: standard agar dilution assay (MIC); type: cell-based; conditions: UC 41; 24 hours, 28° to 37° C.
Method: as §1

[6] = tested on: Salmonella schottmuelleri; assay: standard agar dilution assay (MIC); type: cell-based; conditions: UC 126; 24 hours, 28° to 37° C.
Method: as §1

[7] = tested on: Klebsiella pneumoniae; assay: standard agar dilution assay (MIC); type: cell-based; conditions: UC 58; 24 hours, 28° to 37° C.
Method: as §1

[8] = tested on: Escherichia coli; assay: standard agar dilution assay (MIC); type: cell-based; conditions: UC 45; 24 hours, 28° to 37° C.
Method: as §1

[9] = tested on: Streptococcus faecalis; assay: standard agar dilution assay (MIC); type: cell-based; conditions: UC 694; 24 hours, 28° to 37° C.
Method: as §1

[10] = tested on: Gram-positive bacteria; assay: antibacterial activity against Gram-positive bacteria; type: cell-based
Method: as §1

[11] = Solubilities; type: physicochemical; conditions: lower alcohols (1-4 carbons), esters, ethers, aromatic hydrocarbons, dimethylformamide, dimethylsulfoxide, lower ketones (3-6 carbons)
[12] = tested on: H. influenzae; assay: standard agar-dilution method, MIC against ampicillin-resistant and ampicillin-susceptible H. influenzae type b; type: cell-based
Method: Antibiotic U-62,162 was also tested for activity against a group of ampicillin-resistant and ampicillin-susceptible H. influenzae type b.
A solution of the compound was prepared in dimethylsulfoxide (DMSO), diluted in Brain Heart Infusion Broth (BHIB) and MIC's were determined using the standard agar-dilution method.

[13] = tested on: S. aureus 6029; assay: disc plate assay (zone of inhibition, BU); type: cell-based; conditions: essentially pure crystalline, after countercurrent distribution
Method: Buffered (pH 5.8) silica gel is prepared by treating 1 kg of silica gel 60 with a solution of 54.4 g of KH2 PO4 in 800 ml of water. This is dried 16 hours at 110°. A 1 inch (diameter) column containing 60 g of buffered (pH 5.8) silica gel is poured in a slurry with chloroform. To this is added 250 mg of crude U-62,162, prepared as described above, in chloroform. The column is developed first with 120 ml of CHCl3, then with CHCl3 :MeOH (94:6 v/v). Fractions of 5 ml each are collected beginning when the mixed solvent is introduced. They are assayed by plating 12 mm discs containing […] aliquots on S. aureus 6029 trays. Fractions 55-65, containing most of the activity, are pooled and evaporated, 90 mg, […], 17,200 total BU.
A preparation of antibiotic U-62,162, as described above, (3 g) is distributed for 300 transfers in the two-phase solvent system afforded by ethyl acetate:ethanol (95%):cyclohexane:water (2:3:3:2 v/v). Phase volumes are 10 ml each. Fractions 120-150 are combined and the residue from these after evaporation affords essentially pure crystalline antibiotic U-62,162, 1 g, assaying 800-1500 BU/mg against S. aureus 6029. A BU is the amount of material distributed on a 12 mm disc which will give a 20 mm zone of inhibition.

[14] = stability to pH; type: physicochemical; conditions: pH 8.5 and higher

Question: What does the source list for `CC(C)=CC(C)CC(C)/C=C/C(=O)NC1=CC(O)(CCCCC(=O)O)C2OC2C1=O` (centres unmarked) [U-62,162]?
Answer: Minimum Inhibitory Concentration [1]: > 1000 µg/mL; Minimum Inhibitory Concentration ([2]; UC 76): 1.0 µg/mL; Minimum Inhibitory Concentration ([2]; UC 6685): 1.0 µg/mL; Minimum Inhibitory Concentration ([2]; UC 6690): 1.0 µg/mL; Minimum Inhibitory Concentration [3]: 125 µg/mL; Minimum Inhibitory Concentration [4]: 7.8 µg/mL; Minimum Inhibitory Concentration [5]: 1.0 µg/mL; Minimum Inhibitory Concentration [6]: > 1000 µg/mL; Minimum Inhibitory Concentration [7]: > 1000 µg/mL; Minimum Inhibitory Concentration [8]: > 1000 µg/mL; Minimum Inhibitory Concentration [9]: 7.8 µg/mL; activity against various Gram-positive bacteria (in words) [10]: active; Solubilities [11]: soluble; MIC ([12]; UC 6482, ampicillin susceptible): 62.5 µg/mL (≈ 149 µM); MIC ([12]; UC 6483, ampicillin resistant): 31.25 µg/mL (≈ 74.5 µM); MIC ([12]; UC 6484, ampicillin resistant): 31.25 µg/mL (≈ 74.5 µM); MIC ([12]; UC 6485, ampicillin susceptible): 31.25 µg/mL (≈ 74.5 µM); MIC ([12]; UC 6486, ampicillin susceptible): 31.25 µg/mL (≈ 74.5 µM); MIC ([12]; UC 6582, ampicillin resistant): 31.25 µg/mL (≈ 74.5 µM); MIC ([12]; UC 6583, ampicillin resistant): 31.25 µg/mL (≈ 74.5 µM); MIC ([12]; UC 6585, ampicillin resistant): 31.25 µg/mL (≈ 74.5 µM); MIC ([12]; UC 6586, ampicillin resistant): 31.25 µg/mL (≈ 74.5 µM); MIC ([12]; UC 6587, ampicillin resistant): 31.25 µg/mL (≈ 74.5 µM); MIC ([12]; UC 6589, ampicillin resistant): 31.25 µg/mL (≈ 74.5 µM); MIC ([12]; UC 6592, ampicillin resistant): 15.6 µg/mL (≈ 37.2 µM); MIC ([12]; UC 6595, ampicillin resistant): 31.25 µg/mL (≈ 74.5 µM); MIC ([12]; UC 6596, ampicillin resistant): 31.25 µg/mL (≈ 74.5 µM); MIC ([12]; UC 6597, ampicillin susceptible): 31.25 µg/mL (≈ 74.5 µM); MIC ([12]; UC 6598, ampicillin susceptible): 31.25 µg/mL (≈ 74.5 µM); activity against H. influenzae type b cultures (in words) ([12]; all of the cultures tested): moderate activity; potency (BU; amount on a 12 mm disc which will give a 20 mm zone of inhibition) [13]: 800-1500 BU/mg; stability [14]: unstable
